Data published in patent publication US4220755A, “Fortimicin B derivatives and process for production thereof” (Abbott Laboratories, priority 1976, dated 1980).
≈ marks a conversion by molar mass, not a printed value.

Tests used:
[1] = tested on: Pseudomonas aeruginosa R5 KY8512; experiment: MIC, agar dilution method, pH 7.2; type: cell-based; details: R5KY8512, pH 7.2, P. aeruginosa R5 KY8512, 6**: neomycin, producing phosphotransferase type I and type II, read-out: Minimum inhibition concentration (MIC)
Procedure: (§1) Measurement was carried out according to the agar dilution method, using a medium of pH 8.0, or the Japanese Antibiotic Medicament Standard, using a medium of pH 7.2 Units are in mcg/ml.
6: neomycin, producing phosphotransferase type I and type II.

[2] = tested on: Pseudomonas aeruginosa R9 KY8516; experiment: MIC, agar dilution method, pH 7.2; type: cell-based; details: R9KY8516, pH 7.2, P. aeruginosa R9 KY8516, 3**: kanamycin, producing acetyltransferase, read-out: Minimum inhibition concentration (MIC)
Procedure: as §1
(§2) 3: kanamycin, producing acetyltransferase.

Serratia marcescens 1065 = experiment: MIC, agar dilution method, pH 7.2; type: cell-based; details: pH 7.2; Serratia marcescens 1065; 3**: kanamycin, producing acetyltransferase; read-out: Minimum inhibition concentration (MIC)
Procedure: as §1, §2

[3] = tested on: Escherichia coli R17 Z343; experiment: MIC, agar dilution method, pH 7.2; type: cell-based; details: R17Z343, pH 7.2, E. coli R17 Z343, 3**: kanamycin, producing acetyltransferase, read-out: Minimum inhibition concentration (MIC)
Procedure: as §1, §2

[4] = tested on: Shigella sonnei KY4281 ATCC9290; experiment: MIC, agar dilution method, pH 8.0; type: cell-based; details: ATCC9290; pH 8.0; Shigella sonnei KY4281; read-out: Minimum inhibition concentration (MIC), SS
Procedure: as §1

[5] = tested on: Proteus vulgaris KY4277 ATCC6897; experiment: MIC, agar dilution method, pH 8.0; type: cell-based; details: ATCC6897; pH 8.0; Proteus vulgaris KY4277; read-out: Minimum inhibition concentration (MIC), PV
Procedure: as §1

[6] = tested on: Eschericia coli KY4271 ATCC26; experiment: MIC, agar dilution method, pH 8.0; type: cell-based; details: Escherichia coli, ATCC26; pH 8.0; E. coli KY4271; read-out: Minimum inhibition concentration (MIC), EC
Procedure: as §1
E.C.: Eschericia coli KY4271 ATCC26

[7] = tested on: Staphylococcus aureus KY4279 ATCC6538P; experiment: MIC, agar dilution method, pH 8.0; type: cell-based; details: Staphylococcus aureus, pH 8, read-out: Minimum inhibition concentration (MIC), SA
Procedure: as §1
S.A.: Staphylococcus aureus KY4279 ATCC6538P

[8] = tested on: Staphylococcus a ureus 226; experiment: MIC, agar dilution method, pH 7.2; type: cell-based, Staphylococcus aureus; details: pH 7.2; Staphylococcus aureus 226; read-out: Minimum inhibition concentration (MIC)
Procedure: as §1

various microorganisms = experiment: Antibacterial activity (general statements); type: cell-based; details: qualitative statement
Procedure: as §1

[9] = tested on: Escherichia coli R19 KY8348; experiment: MIC, agar dilution method, pH 7.2; type: cell-based; details: R19KY8348, pH 7.2, E. coli R19 KY8348, 4**: gentamicin, producing acetyltransferase type I, read-out: Minimum inhibition concentration (MIC)
Procedure: as §1
(§3) 4: gentamicin, producing acetyltransferase type I.

[10] = tested on: Pseudomonas aeruginosa R4 KY8511; experiment: MIC, agar dilution method, pH 7.2; type: cell-based; details: R4KY8511, pH 7.2, P. aeruginosa R4 KY8511, 4**: gentamicin, producing acetyltransferase type I, read-out: Minimum inhibition concentration (MIC)
Procedure: as §1, §3

[11] = tested on: Escherichia coli R20 KY8349; experiment: MIC, agar dilution method, pH 7.2; type: cell-based; details: R20KY8349, pH 7.2, E. coli R20 KY8349, 5**: neomycin, producing phosphotransferase type I, read-out: Minimum inhibition concentration (MIC)
Procedure: as §1
5: neomycin, producing phosphotransferase type I.

[12] = tested on: Staphylococcus aureus Smith (A); experiment: MIC, agar dilution method, pH 7.2; type: cell-based; details: pH 7.2; Staphylococcus aureus Smith (A); read-out: Minimum inhibition concentration (MIC)
Procedure: as §1

[13] = tested on: Eschericihia coli GN2411-5; experiment: MIC, agar dilution method, pH 7.2; type: cell-based; details: Escherichia coli; pH 7.2; E. coli GN2411-5; read-out: Minimum inhibition concentration (MIC)
Procedure: as §1

[14] = tested on: Staphylococcus aureus 209-P; experiment: MIC, agar dilution method, pH 7.2; type: cell-based; details: pH 7.2; Staphylococcus aureus 209-P; read-out: Minimum inhibition concentration (MIC)
Procedure: as §1

Shigella sonnei ATCC9290 = experiment: MIC, agar dilution method, pH 7.2; type: cell-based; details: read-out: Minimum inhibition concentration (MIC)
Procedure: as §1

[15] = tested on: Klebsiella pneumoniae KY4274; experiment: MIC, agar dilution method, pH 7.2; type: cell-based; details: pH 7.2; Klebsiella pneumoniae KY4274; read-out: Minimum inhibition concentration (MIC)
Procedure: as §1

[16] = tested on: Pseudomonas aeruginosa UCLA 4184; experiment: MIC, agar dilution method, pH 7.2; type: cell-based; details: UCLA4184; pH 7.2; Pseudomonas aeruginosa UCLA 4184; read-out: Minimum inhibition concentration (MIC)
Procedure: as §1

Proteus vulgaris JJ = experiment: MIC, agar dilution method, pH 7.2; type: cell-based; details: pH 7.2; Proteus vulgaris JJ; read-out: Minimum inhibition concentration (MIC)
Procedure: as §1

[17] = tested on: Pseudomonas aeruginosa BMH# 1; experiment: MIC, agar dilution method, pH 7.2; type: cell-based; details: pH 7.2; Pseudomonas aeruginosa BMH# 1; read-out: Minimum inhibition concentration (MIC)
Procedure: as §1

Escherichia coli NIHTC-2 = experiment: MIC, agar dilution method, pH 7.2; type: cell-based; details: NIHTC2; pH 7.2; Escherichia coli NIHTC-2; read-out: Minimum inhibition concentration (MIC)
Procedure: as §1

[18] = tested on: Salmonella enteritidis G-14; experiment: MIC, agar dilution method, pH 7.2; type: cell-based; details: Salmonella enterica; pH 7.2; Salmonella enteritidis G-14; read-out: Minimum inhibition concentration (MIC)
Procedure: as §1

[19] = tested on: Salmonella typhosa KY4278 ATCC9992; experiment: MIC, agar dilution method, pH 8.0; type: cell-based; details: Salmonella enterica, pH 8, read-out: Minimum inhibition concentration (MIC), ST
Procedure: as §1
S.T.: Salmonella typhosa KY4278 ATCC9992

[20] = tested on: Klebsiella pneumoniae 3020 Y-60; experiment: MIC, agar dilution method, pH 7.2; type: cell-based; details: 3020Y60; pH 7.2; Klebsiella pneumoniae 3020 Y-60; 1**: gentamicin, producing adenylsynthetase; read-out: Minimum inhibition concentration (MIC)
Procedure: as §1
(§4) **1: gentamicin, producing adenylsynthetase.

[21] = tested on: Escherichia coli R12 Z-338; experiment: MIC, agar dilution method, pH 7.2; type: cell-based; details: R12Z338, pH 7.2, E. coli R12 Z-338, 1**: gentamicin, producing adenylsynthetase, read-out: Minimum inhibition concentration (MIC)
Procedure: as §1, §4

[22] = tested on: Escherichia coli 57R/W677; experiment: MIC, agar dilution method, pH 7.2; type: cell-based; details: 57R/W677, pH 7.2, read-out: Minimum inhibition concentration (MIC)
Procedure: as §1, §4

Escherichia coli 76-2 = experiment: MIC, agar dilution method, pH 7.2; type: cell-based; details: Escherichia coli, 762; pH 7.2; E. coli 76-2; 1**: gentamicin, producing adenylsynthetase; read-out: Minimum inhibition concentration (MIC)
Procedure: as §1, §4

[23] = tested on: Klebsiella pneumoniae KY4275 ATCC10031; experiment: MIC, agar dilution method, pH 8.0; type: cell-based; details: ATCC10031; pH 8.0; Klebsiella pneumoniae KY4275; read-out: Minimum inhibition concentration (MIC), KP
Procedure: as §1
K.P.: Klebsiella pneumoniae KY4275 ATCC10031.

Eschericihia coli 3100 = experiment: MIC, agar dilution method, pH 7.2; type: cell-based, Escherichia coli; details: Escherichia coli; pH 7.2; E. coli 3100; read-out: Minimum inhibition concentration (MIC)
Procedure: as §1

Providencia sp 164 = experiment: MIC, agar dilution method, pH 7.2; type: cell-based; details: pH 7.2; Providencia sp 164; 7**: gentamicin, producing acetyltransferase type II; read-out: Minimum inhibition concentration (MIC)
Procedure: as §1
7: gentamicin, producing acetyltransferase type II.

Bacillus subtilis KY4273 = experiment: MIC, agar dilution method, pH 8.0; type: cell-based; details: Bacillus subtilis, KY4273, pH 8, read-out: Minimum inhibition concentration (MIC), BS
Procedure: as §1
B.S.: Bacillus subtilis KY4273

[24] = tested on: Escherichia coli R18 KY8321; experiment: MIC, agar dilution method, pH 7.2; type: cell-based; details: R18KY8321, E. coli R18 KY8321, 2**: gentamicin, producing adenylsynthetase and neomycin phosphotransferase type II, read-out: Minimum inhibition concentration (MIC)
Procedure: as §1
2: gentamicin, producing adenylsynthetase and neomycin phosphotransferase

## CN[C@H]1[C@@H](O)[C@H](O[C@H]2O[C@H]([C@H](C)N)CC[C@H]2N)[C@@H](N)[C@H](O)[C@@H]1OC [Compound 1, fortimicin B]
[1]
  MIC: > 100 µg/mL
[2]
  MIC: > 100 µg/mL
Serratia marcescens 1065
  MIC: > 100 µg/mL
[3]
  MIC: > 100 µg/mL
[4]
  MIC: 50 µg/mL (≈ 143 µM)
[5]
  MIC: 25 µg/mL (≈ 71.7 µM)
[6]
  MIC: 25 µg/mL (≈ 71.7 µM)
[7]
  MIC: 12.5 µg/mL (≈ 35.9 µM)
[8]
  MIC: 100 µg/mL (≈ 287 µM)
Various microorganisms
  Antibacterial activity: not as good as the other factors
[9]
  MIC: > 100 µg/mL
[10]
  MIC: > 100 µg/mL
[11]
  MIC: > 100 µg/mL
[12]
  MIC: 100 µg/mL (≈ 287 µM)
[13]
  MIC: > 100 µg/mL
[14]
  MIC: > 100 µg/mL
Shigella sonnei ATCC9290
  MIC: > 100 µg/mL
[15]
  MIC: 100 µg/mL (≈ 287 µM)
[16]
  MIC: > 100 µg/mL
Proteus vulgaris JJ
  MIC: > 100 µg/mL
[17]
  MIC: > 100 µg/mL
Escherichia coli NIHTC-2
  MIC: > 100 µg/mL
[18]
  MIC: 100 µg/mL (≈ 287 µM)
[19]
  MIC: 12.5 µg/mL (≈ 35.9 µM)
[20]
  MIC: > 100 µg/mL
[21]
  MIC: > 100 µg/mL
[22]
  MIC: > 100 µg/mL
Escherichia coli 76-2
  MIC: > 100 µg/mL
[23]
  MIC: 50 µg/mL (≈ 143 µM)
Eschericihia coli 3100
  MIC: 100 µg/mL (≈ 287 µM)
Providencia sp 164
  MIC: > 100 µg/mL
Bacillus subtilis KY4273
  MIC: 12.5 µg/mL (≈ 35.9 µM)
[24]
  MIC: > 100 µg/mL
